From US8865750B2, “Small molecule inhibitors of RGS proteins” (The Regents of The University of Michigan, priority 2011, dated 2014)
Like-named read-outs stand apart in the source and are kept apart here.

Assays:
[1] = tested on: RGS4; test: FCPIA: Gαo binding to RGS4; conditions: for RGS4 Hill Slope: Table 3; for IC50: Table 3, duplex FCPIA, average of two experiments, read-out: RGS4 IC50
Source text: (§1) FCPIA Dose Response and Reversibility Experiments:

[2] = target: RGS8 (Homo sapiens (Human), UniProt P57771); test: FCPIA: Gαo binding to RGS8; conditions: for RGS8 Hill Slope: Table 3; for IC50: read-out: RGS8 IC50
Chain of RGS8 (P57771 other isoform, or with tags, fused parts or gaps): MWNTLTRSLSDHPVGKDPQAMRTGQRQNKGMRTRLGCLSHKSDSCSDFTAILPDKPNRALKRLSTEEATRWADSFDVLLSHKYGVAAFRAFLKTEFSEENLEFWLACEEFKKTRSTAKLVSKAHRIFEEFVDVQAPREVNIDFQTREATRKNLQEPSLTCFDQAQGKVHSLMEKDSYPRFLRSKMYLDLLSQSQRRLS
Source text: as §1

[3] = tested on: HEK293 cells; test: Calcium mobilization induced by compound alone; type: cell-based; conditions: Homo sapiens, HEK293; read-out: Calcium transient (% 50014);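 also: percent of response to 10 µM reference CCG-50014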
Experimental: Calcium Mobilization Experiments:
A stable cell line was developed based upon the HEK-293 Flp-In TREx cell line (Invitrogen, Carlsbad, Calif.) that stably express the muscarinic M3 receptor and have human RGS4 expression under doxycycline control. Cells were maintained in DMEM supplemented with 10% fetal bovine serum and Penicillin (100 units/ml)-Streptomycin (100 μg/ml) under 5% CO2 at 37° C. For experiments, cells were split into 96-well black, clear bottom, poly-D-lysine coated microtiter plates (Nunc, Cat. #152037) at a density of 20,000 cells/well in DMEM containing 10% fetal bovine serum and Penicillin (100 units/ml), Streptomycin (100 μg/ml). RGS4 expression was induced by supplementing the medium with 1 μg/mL doxycycline for 24-48 hours before experimentation. Cells were loaded with Fluo-4 No Wash dye in buffer for 30 minutes at 37° C. Compounds and/or carbachol were added to the wells and the fluorescence intensity was measured using a FlexStation (Molecular Devices, Sunnyvale, Calif.) plate reader. Data analysis was performed by calculating the area under the curve or maximal fluorescence intensity from a 120 second kinetic measurement.

[4] = Table 3, duplex FCPIA, average of two experiments

SMILES | RGS4 Hill Slope [1] | IC50 [1] | RGS8 Hill Slope [2] | IC50 [2, 4] | Emax at 10 µM [3] | IC50 ([2]; Table 6, FCPIA)
CC(C)Cn1c(=O)sn(C(C)(C)C)c1=O [CCG-203763, 2-t-butyl-4-isobutyl-1,2,4-thiadiazolidine-3,5-dione] | −0.85 | 0.029 µM | −0.52 | 194 µM | 73.5% | 
CCCCn1sc(=O)n(Cc2ccc(F)cc2)c1=O [CCG-203765, 2-butyl-4-(4-fluorobenzyl)-1,2,4-thiadiazolidine-3,5-dione] | −0.81 | 0.016 µM | −0.59 | 31.6 µM | 184% | 
CCCCn1c(=O)sn(-c2ccc(C)cc2)c1=O [CCG-203767, 2-p-tolyl-4-butyl-1,2,4-thiadiazolidine-3,5-dione] | −1.46 | 0.02 µM | −0.96 |  | 123% | 9.5 µM
CCCCn1c(=O)sn(C(C)(C)C)c1=O [CCG-203768, 2-t-butyl-4-butyl-1,2,4-thiadiazolidine-3,5-dione] | −3.18 | 0.054 µM | −0.70 | 119 µM | 91.7% | 
CCCCn1sc(=O)n(CCCC)c1=O [CCG-203770, 2,4-dibutyl-1,2,4-thiadiazolidine-3,5-dione] | −0.83 | 0.03 µM | −0.53 | 122 µM | 188% | 
O=c1sn(-c2cccc(C(F)(F)F)c2)c(=O)n1Cc1ccccc1 [CCG-203772] | −1.43 | 0.057 µM | −1.15 | 16.4 µM | 165% | 
O=c1sn(-c2cccc(Cl)c2)c(=O)n1Cc1ccccc1 [CCG-203773, 2-(3-chlorophenyl)-4-benzyl-1,2,4-thiadiazolidine-3,5-dione] | −1.25 | 0.033 µM | −0.87 |  | 199% | 10.9 µM
O=c1sn(-c2cccc(C(F)(F)F)c2)c(=O)n1Cc1ccc(F)cc1 [CCG-203775, 2-(3-trifluoromethylphenyl)-4-(4-fluorobenzyl)-1,2,4-thiadiazolidine-3,5-dione] | −0.88 | 0.079 µM | −1.14 | 16.2 µM | 170% | 
O=c1sn(-c2cccc(Cl)c2)c(=O)n1Cc1ccc(F)cc1 [CCG-203776, 2-(3-chlorophenyl)-4-(4-fluorobenzyl)-1,2,4-thiadiazolidine-3,5-dione] | −1.08 | 0.052 µM | −1.07 | 12.8 µM | 223% | 
Cc1ccc(-n2sc(=O)n(Cc3cccc(Cl)c3)c2=O)cc1 [CCG-203777, 2-p-tolyl-4-(3-chlorobenzyl)-1,2,4-thiadiazolidine-3,5-dione] | −0.96 | 0.017 µM | −1.00 | 17.5 µM | 179% | 
Cc1cccc(-n2sc(=O)n(Cc3ccc(F)cc3)c2=O)c1 [CCG-203788, 2-(3-methylphenyl)-4-(4-fluorobenzyl)-1,2,4-thiadiazolidine-3,5-dione] | −1.91 | 0.121 µM | −1.09 | 7.1 µM | 134% | 
CN(C)c1ccc(-n2sc(=O)n(Cc3ccc(F)cc3)c2=O)cc1 [S2, 2-(4-dimethylaminophenyl)-4-(4-fluorobenzyl)-1,2,4-thiadiazolidine-3,5-dione] | −1.65 |  | −1.28 | 10.3 µM | 111% | 10.3 µM
CC(C)(C)c1ccc(-n2sc(=O)n(Cc3ccccc3)c2=O)cc1 [S3, 2-(4-t-butylphenyl)-4-benzyl-1,2,4-thiadiazolidine-3,5-dione] | −1.79 |  | −0.78 | 17.4 µM | 123% | 17.4 µM
O=c1sn(-c2ccc(Cl)cc2)c(=O)n1Cc1ccc(Cl)cc1 [S5, 2-(4-chlorophenyl)-4-(4-chlorobenzyl)-1,2,4-thiadiazolidine-3,5-dione] | −1.48 |  | −1.36 | 12.7 µM | 141% | 12.7 µM
COc1ccc(-n2sc(=O)n(Cc3ccc(Cl)cc3)c2=O)cc1 [S6, 2-(4-methoxyphenyl)-4-(4-chlorobenzyl)-1,2,4-thiadiazolidine-3,5-dione] | −1.73 |  | −0.91 | 40.2 µM | 104% | 40.2 µM
Cc1ccc(Cn2sc(=O)n(Cc3ccc(Cl)cc3)c2=O)cc1 [S8, 2-(4-methylbenzyl)-4-(4-chlorobenzyl)-1,2,4-thiadiazolidine-3,5-dione] | −1.23 |  | −0.60 | 337 µM | 11.4% | 337 µM
Cc1ccc(Cn2c(=O)sn(-c3ccccc3)c2=O)cc1 [S9, 2-phenyl-4-(4-methylbenzyl)-1,2,4-thiadiazolidine-3,5-dione] | −1.50 |  | −0.87 | 8.3 µM | 12.2% | 8.3 µM
Cc1ccc(Cn2c(=O)sn(-c3ccc(Cl)cc3)c2=O)cc1 [S10, 2-(4-chlorophenyl)-4-(4-methylbenzyl)-1,2,4-thiadiazolidine-3,5-dione] | −1.59 |  | −1.17 | 12.8 µM | 20% | 12.8 µM
Cc1ccc(Cn2sc(=O)n(Cc3ccc(C)cc3)c2=O)cc1 [S13, 2,4-bis(4-methylbenzyl)-1,2,4-thiadiazolidine-3,5-dione] | −0.92 |  | −0.51 | 94.7 µM | 251% | 94.7 µM
O=c1sn(-c2ccccc2)c(=O)n1Cc1cccc(Cl)c1 [S14, 2-phenyl-4-(3-chlorobenzyl)-1,2,4-thiadiazolidine-3,5-dione] | −1.41 |  | −1.47 | 9.4 µM | 57.7% | 9.4 µM
Cc1cccc(-n2sc(=O)n(Cc3cccc(Cl)c3)c2=O)c1 [S16, 2-m-tolyl-4-(3-chlorobenzyl)-1,2,4-thiadiazolidine-3,5-dione] | −1.52 |  | −0.95 | 10.1 µM | 142% | 10.1 µM
O=c1sn(-c2cccc(Cl)c2)c(=O)n1Cc1cccc(Cl)c1 [S17, 2-(3-chlorophenyl)-4-(3-chlorobenzyl)-1,2,4-thiadiazolidine-3,5-dione] | −1.55 |  | −1.66 | 21.1 µM | 67.8% | 21.1 µM
Cc1cccc(Cn2c(=O)sn(-c3ccccc3)c2=O)c1 [S19, 2-phenyl-4-(3-methylbenzyl)-1,2,4-thiadiazolidine-3,5-dione] | −1.65 |  | −1.17 | 8.4 µM | 243% | 8.4 µM
Cc1cccc(Cn2c(=O)sn(-c3cccc(C)c3)c2=O)c1 [S21, 2-m-tolyl-4-(3-methylbenzyl)-1,2,4-thiadiazolidine-3,5-dione] | −1.79 |  | −0.82 | 10.4 µM | 63.3% | 10.4 µM
COc1ccc(Cn2c(=O)sn(-c3ccccc3)c2=O)cc1 [S24, 2-phenyl-4-(4-methoxybenzyl)-1,2,4-thiadiazolidine-3,5-dione] | −1.78 |  | −0.77 | 7.2 µM | 18.6% | 7.2 µM
COc1ccc(Cn2c(=O)sn(-c3ccc(Cl)cc3)c2=O)cc1 [S25, 2-(4-chlorophenyl)-4-(4-methoxybenzyl)-1,2,4-thiadiazolidine-3,5-dione] | −3.26 |  | −0.73 | 9.9 µM | 84.6% | 9.9 µM
COc1ccc(Cn2c(=O)sn(-c3ccc(OC)cc3)c2=O)cc1 [S26, 2-(4-methoxyphenyl)-4-(4-methoxybenzyl)-1,2,4-thiadiazolidine-3,5-dione] | −1.27 |  | −0.81 | 17.6 µM | 54.9% | 17.6 µM
COc1ccc(Cn2c(=O)sn(-c3ccc(Cl)c(Cl)c3)c2=O)cc1 [S27, 2-(3,4-dichlorophenyl)-4-(4-methoxybenzyl)-1,2,4-thiadiazolidine-3,5-dione] | −1.04 |  | −1.50 | 36 µM | 63.4% | 36 µM
COc1ccc(Cn2c(=O)sn(Cc3ccc(C)cc3)c2=O)cc1 [S28, 2-(4-methylbenzyl)-4-(4-methoxybenzyl)-1,2,4-thiadiazolidine-3,5-dione] | −2.42 |  | −0.64 | 92.9 µM | 169% | 92.9 µM
